Experimental data reported in US20260184710A1, “CASITAS B-LINEAGE LYMPHOMA PROTOONCOGENE B (CBL-B) DEGRADING COMPOUNDS AND ASSOCIATED METHODS OF USE” (Arvinas Operations, Inc., priority 2022, published 2026).

Tests used:
Cbl-b [1] = target: T1, Cbl-b (Homo sapiens, UniProt Q13191); assay: Cbl-b Degradation Method B (Nano-Glo HiBiT lytic detection); format: cell-based; conditions: Cbl-b-HiBit KI Jurkat Cells, incubated at least 6-24 hours; for DC50: half maximal degradation, read-out: Cbl-b Degredation Method B IC50; for Dmax: read-out: Cbl-b Degredation Method B Dmax (%)
T1 construct: Cbl-b-HiBit KI Jurkat Cells were purchased from Promega; host or cells: Cbl-b-HiBiT knock-in Jurkat cells
Summary of the method: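 An 11-point, 3-fold compound dilution was applied for 6-24 hours to Jurkat cells carrying HiBiT-tagged endogenous Cbl-b. Lytic HiBiT luminescence quantified residual protein. Outputs are DC50 and Dmax relative to DMSO control.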

Cbl-b [2] = target: T1, Cbl-b; assay: Cbl-b Degradation Method A (FACS, anti-Cbl-b antibody staining); format: cell-based; conditions: Cbl-b-HiBit KI Jurkat Cells, incubated at least 20 hours; for DC50: half maximal degradation, read-out: Cbl-b Degredation Method A IC50; for Dmax: Jurkat, maximum degradation observed, read-out: Cbl-b Degredation Method A Dmax (%)
Summary of the method: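 Readout is flow cytometry of fixed, permeabilized cells immunostained for Cbl-b (primary 1:200, AF488 secondary). Cells were Cbl-b-HiBit knock-in Jurkat, exposed to compound ≥20 h at 37 °C; half-maximal degradation concentration (DC50) and maximal degradation (Dmax) calculated relative to control.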

T1 sequence (Q13191 whole entry): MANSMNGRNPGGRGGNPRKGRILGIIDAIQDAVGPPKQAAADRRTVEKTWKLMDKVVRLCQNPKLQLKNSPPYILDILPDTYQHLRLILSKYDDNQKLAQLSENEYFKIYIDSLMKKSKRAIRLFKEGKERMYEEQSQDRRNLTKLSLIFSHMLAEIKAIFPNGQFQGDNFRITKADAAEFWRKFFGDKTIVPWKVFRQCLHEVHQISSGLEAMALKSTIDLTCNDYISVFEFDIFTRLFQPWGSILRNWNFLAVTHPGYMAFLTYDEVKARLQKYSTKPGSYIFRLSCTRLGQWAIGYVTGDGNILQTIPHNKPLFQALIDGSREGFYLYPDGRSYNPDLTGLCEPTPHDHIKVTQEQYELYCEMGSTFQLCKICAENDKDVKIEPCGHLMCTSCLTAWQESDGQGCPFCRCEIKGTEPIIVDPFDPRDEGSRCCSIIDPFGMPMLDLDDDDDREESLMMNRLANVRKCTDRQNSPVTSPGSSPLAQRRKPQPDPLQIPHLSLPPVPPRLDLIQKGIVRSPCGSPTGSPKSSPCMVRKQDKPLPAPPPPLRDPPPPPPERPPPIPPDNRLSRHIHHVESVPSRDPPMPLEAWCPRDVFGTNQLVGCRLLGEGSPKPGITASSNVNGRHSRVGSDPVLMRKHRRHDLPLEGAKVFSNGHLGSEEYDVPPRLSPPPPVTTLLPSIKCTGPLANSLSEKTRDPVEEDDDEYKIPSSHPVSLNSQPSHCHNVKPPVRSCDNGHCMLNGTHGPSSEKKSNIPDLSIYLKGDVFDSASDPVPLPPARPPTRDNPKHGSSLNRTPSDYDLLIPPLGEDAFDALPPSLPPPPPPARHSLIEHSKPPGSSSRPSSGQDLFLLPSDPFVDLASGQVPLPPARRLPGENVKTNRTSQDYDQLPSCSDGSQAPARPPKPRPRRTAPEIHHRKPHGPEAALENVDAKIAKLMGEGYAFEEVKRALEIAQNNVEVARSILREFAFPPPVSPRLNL

Row | DC50 (Cbl-b [1]) [nM] | Dmax (Cbl-b [1]; maximum degradation observed) [%] | DC50 (Cbl-b [2]) [nM] | Dmax (Cbl-b [2]) [%] | Cbl-b Degredation Method B Dmax (%) (Cbl-b [1]; maximum degradation observed) | SMILES
1 | > 500 |  | > 500 |  |  | Cn1cnnc1CC1(c2cccc(N3Cc4c(cc(CN5CCC(CC6CCN(c7ccc8c(c7)C(=O)N(C7CCC(=O)NC7=O)C8=O)CC6)C5)cc4C(F)(F)F)C3=O)c2)COC1 (stereo not drawn) [Example 75, 2-(2,6-dioxopiperidin-3-yl)-5-{4-[(1-{[2-(3-{3-[(4-methyl-4H-1,2,4-triazol-3-yl)methyl]oxetan-3-yl}phenyl)-3-oxo-7-(trifluoromethyl)-2,3-dihydro-1H-isoindol-5-yl]methyl}pyrrolidin-3-yl)methyl]piperidin-1-yl}-2,3-dihydro-1H-isoindole-1,3-dione]
2 | > 500 |  | 5 to 50 | < 35 |  | Cn1cnnc1CC1(c2cccc(N3Cc4c(cc(CN5CCC[C@@H](CN6CCC(CC7CCN(c8ccc9c(c8)C(=O)N(C8CCC(=O)NC8=O)C9=O)CC7)CC6)C5)cc4C(F)(F)F)C3=O)c2)COC1 (stereo partly drawn) [Example 110, 2-(2,6-dioxopiperidin-3-yl)-5-{4-[(1-{[(3S)-1-{[2-(3-{3-[(4-methyl-4H-1,2,4-triazol-3-yl)methyl]oxetan-3-yl}phenyl)-3-oxo-7-(trifluoromethyl)-2,3-dihydro-1H-isoindol-5-yl]methyl}piperidin-3-yl]methyl}piperidin-4-yl)methyl]piperidin-1-yl}-2,3-dihydro-1H-isoindole-1,3-dione]
3 | < 5 | 35 to 70 | < 5 | 35 to 70 |  | CC1c2nc(N3CCC(O[C@H]4CC[C@H](CN5CCN(Cc6cc7c(c(C(F)(F)F)c6)CN(c6cccc([C@]8(Cc9nncn9C)C[C@@H](C#N)C8)c6)C7=O)CC5)CC4)CC3)ccc2C(=O)N1C1CCC(=O)NC1=O (stereo partly drawn) [Example 203, (1r,3r)-3-[(4-methyl-4H-1,2,4-triazol-3-yl)methyl]-3-(3-{1-oxo-6-[(4-{[(1r,4r)-4-({1-[6-(2,6-dioxopiperidin-3-yl)-7-methyl-5-oxo-5H,6H,7H-pyrrolo[3,4-b]pyridin-2-yl]piperidin-4-yl}oxy)cyclohexyl]methyl}piperazin-1-yl)methyl]-4-(trifluoromethyl)-2,3-dihydro-1H-isoindol-2-yl}phenyl)cyclobutane-1-carbonitrile]
4 | < 5 | > 70 | < 5 | > 70 |  | Cn1cnnc1CC1(c2cccc(N3Cc4c(cc(CN5CC[C@H](CN6CCN(C[C@H]7CC[C@H](OC8CCN(c9ccc%10c(c9F)CN(C9CCC(=O)NC9=O)C%10=O)CC8)CC7)CC6)C5)cc4C(F)(F)F)C3=O)c2)COC1 (stereo partly drawn) [Example 10, 3-[4-fluoro-1-oxo-5-(4-{[(1r, 4r)-4-[(4-{[(3S)-1-{[2-(3-{3-[(4-methyl-4H-1,2,4-triazol-3-yl)methyl]oxetan-3-yl}phenyl)-3-oxo-7-(trifluoromethyl)-2,3-dihydro-1H-isoindol-5-yl]methyl}pyrrolidin-3-yl]methyl}piperazin-1-yl)methyl]cyclohexyl]oxy}piperidin-1-yl)-2,3-dihydro-1H-isoindol-2-yl]piperidine-2,6-dione]
5 | > 500 |  | 50 to 500 |  |  | Cn1cnnc1CC1(c2cccc(N3Cc4c(cc(N5CCN(CC6CCN(c7ccc8c(c7)C(=O)N(C7CCC(=O)NC7=O)C8=O)CC6)CC5)cc4C(F)(F)F)C3=O)c2)COC1 (stereo not drawn) [Example 122, 2-(2,6-dioxopiperidin-3-yl)-5-[4-({4-[2-(3-{3-[(4-methyl-4H-1,2,4-triazol-3-yl)methyl]oxetan-3-yl}phenyl)-3-oxo-7-(trifluoromethyl)-2,3-dihydro-1H-isoindol-5-yl]piperazin-1-yl}methyl)piperidin-1-yl]-2,3-dihydro-1H-isoindole-1,3-dione]
6 | 5 to 50 |  | 50 to 500 | 35 to 70 | C (C ≤ 35) | CC(C)n1c(=O)n(C2CCC(=O)NC2=O)c2cccc(N3CCC(CN4CCC5(CC4)CN(Cc4ccc(-c6cc7c(c(C(F)(F)F)c6)CN(c6cccc(C8(Cc9nncn9C)CC(C#N)C8)c6)C7=O)cc4)C5)CC3)c21 (stereo not drawn) [Example 283, 3-[3-[6-[4-[[7-[[1-[1-(2,6-dioxo-3-piperidyl)-3-isopropyl-2-oxo-benzimidazol-4-yl]-4-piperidyl]methyl]-2,7-diazaspiro[3.5]nonan-2-yl]methyl]phenyl]-1-oxo-4-(trifluoromethyl)isoindolin-2-yl]phenyl]-3-[(4-methyl-1,2,4-triazol-3-yl)methyl]cyclobutanecarbonitrile]

The remaining lines, values behind:

Row | SMILES | DC50 (Cbl-b [1]) [nM] | Dmax (Cbl-b [1]; maximum degradation observed) [%] | DC50 (Cbl-b [2]) [nM] | Dmax (Cbl-b [2]) [%] | Cbl-b Degredation Method B Dmax (%) (Cbl-b [1]; maximum degradation observed)
7 | Cn1cnnc1C[C@]1(c2cccc(N3Cc4c(cc(N5CC6(CCN(CC7(F)CCN(c8ccc9c(c8)C(=O)N(C8CCC(=O)NC8=O)C9=O)CC7)CC6)C5)cc4C(F)(F)F)C3=O)c2)C[C@H](C#N)C1 (stereo partly drawn) [Example 172, (1r,3r)-3-(3-{6-[7-({1-[2-(2,6-dioxopiperidin-3-yl)-1,3-dioxo-2,3-dihydro-1H-isoindol-5-yl]-4-fluoropiperidin-4-yl}methyl)-2,7-diazaspiro[3.5]nonan-2-yl]-1-oxo-4-(trifluoromethyl)-2,3-dihydro-1H-isoindol-2-yl}phenyl)-3-[(4-methyl-4H-1,2,4-triazol-3-yl)methyl]cyclobutane-1-carbonitrile] | 5 to 50 | 35 to 70 | 5 to 50 | 35 to 70 | 
8 | Cn1cnnc1CC1(c2cccc(N3Cc4c(cc(CN5CCC(CN6CC7(C6)CN(c6ccc8c(c6)C(=O)N(C6CCC(=O)NC6=O)C8=O)C7)CC5)cc4C(F)(F)F)C3=O)c2)COC1 (stereo not drawn) [Example 31, 2-(2,6-dioxopiperidin-3-yl)-5-{6-[(1-{[2-(3-{3-[(4-methyl-4H-1,2,4-triazol-3-yl)methyl]oxetan-3-yl}phenyl)-3-oxo-7-(trifluoromethyl)-2,3-dihydro-1H-isoindol-5-yl]methyl}piperidin-4-yl)methyl]-2,6-diazaspiro[3.3]heptan-2-yl}-2,3-dihydro-1H-isoindole-1,3-dione] | > 500 |  | > 500 |  | 
9 | Cn1cnnc1CC1(c2cccc(NC(=O)c3cc(N4CC5(CCN(CC6CCN(c7ccc8c(c7)C(=O)N(C7CCC(=O)NC7=O)C8=O)CC6)CC5)C4)nc(C4CC4)n3)c2)COC1 (stereo not drawn) [Example 18, 2-cyclopropyl-6-[7-[[1-[2-(2,6-dioxo-3-piperidyl)-1,3-dioxo-isoindolin-5-yl]-4-piperidyl]methyl]-2,7-diazaspiro[3.5]nonan-2-yl]-N-[3-[3-[(4-methyl-1,2,4-triazol-3-yl)methyl]oxetan-3-yl]phenyl]pyrimidine-4-carboxamide] | > 500 |  | 50 to 500 | < 35 | 
10 | Cn1cnnc1CC1(c2cccc(N3Cc4c(cc(CN5CCC(COCCOCCOc6ccc7c(c6)C(=O)N(C6CCC(=O)NC6=O)C7=O)CC5)cc4C(F)(F)F)C3=O)c2)COC1 (stereo not drawn) [Example 89, 2-(2,6-dioxopiperidin-3-yl)-5-(2-{2-[(1-{[2-(3-{3-[(4-methyl-4H-1,2,4-triazol-3-yl)methyl]oxetan-3-yl}phenyl)-3-oxo-7-(trifluoromethyl)-2,3-dihydro-1H-isoindol-5-yl]methyl}piperidin-4-yl)methoxy]ethoxy}ethoxy)-2,3-dihydro-1H-isoindole-1,3-dione] | > 500 |  | > 500 |  | 
11 | Cn1cnnc1CC1(c2cccc(N3Cc4c(cc(N5CCC(CC6CCN(c7cc8c(cc7F)C(=O)N(C7CCC(=O)NC7=O)C8=O)CC6)CC5)cc4C(F)(F)F)C3=O)c2)COC1 (stereo not drawn) [Example 118, 2-(2,6-dioxopiperidin-3-yl)-5-fluoro-6-[4-({1-[2-(3-{3-[(4-methyl-4H-1,2,4-triazol-3-yl)methyl]oxetan-3-yl}phenyl)-3-oxo-7-(trifluoromethyl)-2,3-dihydro-1H-isoindol-5-yl]piperidin-4-yl}methyl)piperidin-1-yl]-2,3-dihydro-1H-isoindole-1,3-dione] | > 500 |  | > 500 |  | 
12 | Cn1cnnc1CC1(c2cccc(N3Cc4c(cc(CN5CCN(C6CC7(C6)CN(c6ccc8c(c6)C(=O)N(C6CCC(=O)NC6=O)C8=O)C7)CC5)cc4C(F)(F)F)C3=O)c2)COC1 (stereo not drawn) [Example 107, 2-(2,6-dioxopiperidin-3-yl)-5-[6-(4-{[2-(3-{3-[(4-methyl-4H-1,2,4-triazol-3-yl)methyl]oxetan-3-yl}phenyl)-3-oxo-7-(trifluoromethyl)-2,3-dihydro-1H-isoindol-5-yl]methyl}piperazin-1-yl)-2-azaspiro[3.3]heptan-2-yl]-2,3-dihydro-1H-isoindole-1,3-dione] | > 500 |  | 5 to 50 | < 35 | 
13 | COc1c(N2CCC(F)(CN3CCC4(CC3)CN(c3cc5c(c(C(F)(F)F)c3)CN(c3cccc(C6(Cc7nncn7C)COC6)c3)C5=O)C4)CC2)ccc2c1CN(C1CCC(=O)NC1=O)C2=O (stereo not drawn) [Example 185, 3-{5-[4-fluoro-4-({2-[2-(3-{3-[(4-methyl-4H-1,2,4-triazol-3-yl)methyl]oxetan-3-yl}phenyl)-3-oxo-7-(trifluoromethyl)-2,3-dihydro-1H-isoindol-5-yl]-2,7-diazaspiro[3.5]nonan-7-yl}methyl)piperidin-1-yl]-4-methoxy-1-oxo-2,3-dihydro-1H-isoindol-2-yl}piperidine-2,6-dione] | 5 to 50 | 35 to 70 | 5 to 50 | 35 to 70 | 
